Tests used:
Torin2 = compound: C1=CC(=CC(=C1)N2C(=O)C=CC3=CN=C4C=CC(=CC4=C32)C5=CN=C(C=C5)N)C(F)(F)F [Torin2]
R0-3306 = compound: C1=CC2=C(C=CC(=C2)C=C3C(=O)NC(=NCC4=CC=CS4)S3)N=C1 [R0-3306]
AZD1775 = compound: C=CCn1c(=O)c2cnc(Nc3ccc(N4CCN(C)CC4)cc3)nc2n1-c1cccc(C(C)(C)O)n1 [AZD1775]
BSJ-03-123 = compound: CC(=O)c1c(C)c2cnc(Nc3ccc(N4CCN(CCOCCOCCOCCNC(=O)COc5cccc6c5C(=O)N(C5CCC(=O)NC5=O)C6=O)CC4)cn3)nc2n(C2CCCC2)c1=O [BSJ-03-123]
[1] = compound: CC(=O)c1c(C)c2cnc(Nc3ccc(N4CCNCC4)cn3)nc2n(C2CCCC2)c1=O
BVD523 = compound: CC(C)Nc1cc(-c2c[nH]c(C(=O)N[C@H](CO)c3cccc(Cl)c3)c2)c(Cl)cn1 [BVD523]
INK128/MLN0128 = compound: CC(C)n1nc(-c2ccc3oc(N)nc3c2)c2c(N)ncnc21 [INK128/MLN0128]
SHP099 = compound: CC1(CCN(CC1)C2=CN=C(C(=N2)N)C3=C(C(=CC=C3)Cl)Cl)N [SHP099]
[2] = compound: CCC1=CN=CN=C1N2CCN(CC2)CC3=NC4=C(N3)C=C(C=C4)C(F)(F)F
[3] = compound: CCCCOc1c(C(=O)c2c(F)cc(C)cc2F)c[nH]c2nncc1-2
Neratinib/HKI272 = compound: CCOc1cc2ncc(C#N)c(Nc3ccc(OCc4ccccn4)c(Cl)c3)c2cc1NC(=O)/C=C/CN(C)C [Neratinib/HKI272]
Volasertib/BI6727 = compound: CC[C@@H]1C(=O)N(C)c2cnc(Nc3ccc(C(=O)N[C@H]4CC[C@H](N5CCN(CC6CC6)CC5)CC4)cc3OC)nc2N1C(C)C [Volasertib/BI6727]
[4] = compound: CCc1cnn2c(NCc3ccc[n+]([O-])c3)cc(N3CCCC[C@H]3CCO)nc12
LEE011/Ribociclib = compound: CN(C)C(=O)c1cc2cnc(Nc3ccc(N4CCNCC4)cn3)nc2n1C1CCCC1 [LEE011/Ribociclib]
THZ-P1-2 = compound: CN(C)C/C=C/C(=O)NC1=CC=C(C=C1)C(=O)NC2=CC=CC(=C2)NC3=NC=NC(=C3)C4=CNC5=CC=CC=C54 [THZ-P1-2]
THZ1 = compound: CN(C)C/C=C/C(=O)Nc1ccc(C(=O)Nc2cccc(Nc3ncc(Cl)c(-c4c[nH]c5ccccc45)n3)c2)cc1 [THZ1]
senexin b = compound: CN1CCN(C(=O)c2ccc3cc(CCNc4ncnc5ccc(C#N)cc45)ccc3c2)CC1 [senexin b]
Saracatinib/AZD0530 = compound: CN1CCN(CCOc2cc(OC3CCOCC3)c3c(Nc4c(Cl)ccc5c4OCO5)ncnc3c2)CC1 [Saracatinib/AZD0530]
AZD2014 = compound: CNC(=O)c1cccc(-c2ccc3c(N4CCOC[C@@H]4C)nc(N4CCOC[C@@H]4C)nc3n2)c1 [AZD2014]
Rucaparib = compound: CNCc1ccc(-c2[nH]c3cc(F)cc4c3c2CCNC4=O)cc1 [Rucaparib]
[5] = compound: CNc1nc(-c2ccc3c(N)n[nH]c3c2)cc(N2C[C@@H](C(=O)NC3CCCCC3)CC[C@H]2C)n1
[6] = compound: CO[C@@H](C)Cn1c(=O)n(C)c2cnc3ccc(-c4cncc(C(C)(C)O)c4)cc3c21
Cediranib/AZD2171 = compound: COc1cc2c(Oc3ccc4[nH]c(C)cc4c3F)ncnc2cc1OCCCN1CCCC1 [Cediranib/AZD2171]
Cabozantinib = compound: COc1cc2nccc(Oc3ccc(NC(=O)C4(C(=O)Nc5ccc(F)cc5)CC4)cc3)c2cc1OC [Cabozantinib]
[7] = compound: COc1ccc2c(c1)[C@]1(C[C@H]1c1ccc3c(/C=C/c4ccc(CN5C[C@@H](C)O[C@@H](C)C5)cc4)n[nH]c3c1)C(=O)N2
Pictilisib/GDC0941 = compound: CS(=O)(=O)N1CCN(Cc2cc3nc(-c4cccc5[nH]ncc45)nc(N4CCOCC4)c3s2)CC1 [Pictilisib/GDC0941]
Ceritinib/LDK378 = compound: Cc1cc(Nc2ncc(Cl)c(Nc3ccccc3S(=O)(=O)C(C)C)n2)c(OC(C)C)cc1C1CCNCC1 [Ceritinib/LDK378]
Alpelisib/BYL719 = compound: Cc1nc(NC(=O)N2CCC[C@H]2C(N)=O)sc1-c1ccnc(C(C)(C)C(F)(F)F)c1 [Alpelisib/BYL719]
Dasatinib = compound: Cc1nc(Nc2ncc(C(=O)Nc3c(C)cccc3Cl)s2)cc(N2CCN(CCO)CC2)n1 [Dasatinib]
[8] = compound: Cc1nn(C)c(COc2ccc(N3CCN(S(=O)(=O)N(C)C)CC3)cc2)c1-c1cccc2c(CCCOc3cccc4ccccc34)c(C(=O)O)n(CCN3CCOCC3)c12
AZD7762 = compound: NC(=O)Nc1cc(-c2cccc(F)c2)sc1C(=O)N[C@H]1CCCNC1 [AZD7762]
AZD5363 = compound: NC1(C(=O)N[C@@H](CCO)c2ccc(Cl)cc2)CCN(c2nc[nH]c3nccc2-3)CC1 [AZD5363]
Buparlisib/NVP-BKM120 = compound: Nc1cc(C(F)(F)F)c(-c2cc(N3CCOCC3)nc(N3CCOCC3)n2)cn1 [Buparlisib/NVP-BKM120]
Vorinostat = compound: O=C(CCCCCCC(=O)Nc1ccccc1)NO [Vorinostat]
Tivantinib/ARQ197 = compound: O=C1NC(=O)[C@@H](c2cn3c4c(cccc24)CCC3)[C@@H]1c1c[nH]c2ccccc12 [Tivantinib/ARQ197]
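Also: breast cancer and non-malignant breast epithelial cell lines, Deep Dye Drop or Dye Drop imaging, nine half-log doses, GR normalized to time-zero plates and DMSO-only controls.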

BT549
GR50, 72 h (Torin2): 0.00951 µM
GR50, 72 h (R0-3306): 5.42 µM
GR50, 72 h (AZD1775): 0.318 µM
GR50, 72 h (BSJ-03-123): 6.36 µM
GR50, 72 h [1]: > 3.16 µM
GR50, 72 h (BVD523): > 10 µM
GR50, 72 h (INK128/MLN0128): 0.0166 µM
GR50, 72 h (SHP099): > 10 µM
GR50, 72 h [2]: > 10 µM
GR50, 72 h [3]: 0.00106 µM
GR50, 72 h (Neratinib/HKI272): 1.99 µM
GR50, 72 h (Volasertib/BI6727): 0.00884 µM
GR50, 72 h [4]: 0.0124 µM
GR50, 72 h (LEE011/Ribociclib): > 10 µM
GR50, 72 h (THZ-P1-2): 7.26 µM
GR50, 72 h (THZ1): 0.0528 µM
GR50, 72 h (senexin b): > 10 µM
GR50, 72 h (Saracatinib/AZD0530): > 10 µM
GR50, 72 h (AZD2014): 0.157 µM
GR50, 72 h (Rucaparib): > 10 µM
GR50, 72 h [5]: > 10 µM
GR50, 72 h [6]: 0.00122 µM
GR50, 72 h (Cediranib/AZD2171): 3.64 µM
GR50, 72 h (Cabozantinib): > 10 µM
GR50, 72 h [7]: 0.00315 µM
GR50, 72 h (Pictilisib/GDC0941): 2.78 µM
GR50, 72 h (Ceritinib/LDK378): 2.96 µM
GR50, 72 h (Alpelisib/BYL719): > 10 µM
GR50, 72 h (Dasatinib): 0.592 µM
GR50, 72 h [8]: > 10 µM
GR50, 72 h (AZD7762): 0.0668 µM
GR50, 72 h (AZD5363): > 10 µM
GR50, 72 h (Buparlisib/NVP-BKM120): 1.42 µM
GR50, 72 h (Vorinostat): 2.37 µM
GR50, 72 h (Tivantinib/ARQ197): 0.582 µM

— the supplement of paper PMC9663587
